Our source for the IC50 values is US6245817A, “NPY5 receptor antagonists and methods for using same” (Bayer Corporation, priority 1999, dated 2001).

Structures are written as SMILES.

One assay addresses T1, Human NPY5 Receptor (Homo sapiens, UniProt Q15761).
T1 sequence (Q15761 1-445): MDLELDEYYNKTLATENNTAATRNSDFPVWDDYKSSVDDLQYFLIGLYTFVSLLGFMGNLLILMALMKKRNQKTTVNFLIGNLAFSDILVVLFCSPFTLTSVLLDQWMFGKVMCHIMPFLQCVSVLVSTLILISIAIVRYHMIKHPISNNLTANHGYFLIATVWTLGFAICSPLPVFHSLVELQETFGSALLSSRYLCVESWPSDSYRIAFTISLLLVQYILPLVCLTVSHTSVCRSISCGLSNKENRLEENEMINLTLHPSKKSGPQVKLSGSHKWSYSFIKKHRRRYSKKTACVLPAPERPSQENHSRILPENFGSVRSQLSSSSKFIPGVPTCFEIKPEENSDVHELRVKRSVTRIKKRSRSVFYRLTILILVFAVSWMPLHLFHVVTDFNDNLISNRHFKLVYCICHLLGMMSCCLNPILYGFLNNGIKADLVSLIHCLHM
Briefly: Human NPY5 Receptor Binding Assay. As to conditions: [125I]PYY; read-out: hNPY5 IC50.

For another assay, the target named is T2, Human NPY1 Receptor (Homo sapiens, UniProt P25929).
T2 sequence (P25929 1-384): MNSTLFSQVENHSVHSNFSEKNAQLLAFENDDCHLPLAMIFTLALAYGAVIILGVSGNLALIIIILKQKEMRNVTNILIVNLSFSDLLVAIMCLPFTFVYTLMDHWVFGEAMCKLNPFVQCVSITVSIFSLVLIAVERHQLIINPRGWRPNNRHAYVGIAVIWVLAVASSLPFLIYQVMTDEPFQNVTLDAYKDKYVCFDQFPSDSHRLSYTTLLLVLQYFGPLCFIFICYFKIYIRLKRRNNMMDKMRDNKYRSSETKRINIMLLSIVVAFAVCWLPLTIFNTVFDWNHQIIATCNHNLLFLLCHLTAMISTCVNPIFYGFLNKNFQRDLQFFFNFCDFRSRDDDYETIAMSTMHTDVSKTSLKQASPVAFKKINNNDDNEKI
Briefly: Human NPY1 Receptor Binding Assay. Particulars: SK-N-MC cells, [125I]PYY; read-out: hNPY1 IC50.

The next assay deals with Human NPY4/PP1 receptor (Homo sapiens, UniProt P50391). The experiment in a line: Human NPY4/PP1 Receptor Binding Assay. Particulars: [125I]human PP; read-out: hNPY4 IC50.
The next assay concerns the target T3, Rat NPY5 Receptor (Rattus norvegicus, UniProt Q63634).
T3 sequence (Q63634 1-445): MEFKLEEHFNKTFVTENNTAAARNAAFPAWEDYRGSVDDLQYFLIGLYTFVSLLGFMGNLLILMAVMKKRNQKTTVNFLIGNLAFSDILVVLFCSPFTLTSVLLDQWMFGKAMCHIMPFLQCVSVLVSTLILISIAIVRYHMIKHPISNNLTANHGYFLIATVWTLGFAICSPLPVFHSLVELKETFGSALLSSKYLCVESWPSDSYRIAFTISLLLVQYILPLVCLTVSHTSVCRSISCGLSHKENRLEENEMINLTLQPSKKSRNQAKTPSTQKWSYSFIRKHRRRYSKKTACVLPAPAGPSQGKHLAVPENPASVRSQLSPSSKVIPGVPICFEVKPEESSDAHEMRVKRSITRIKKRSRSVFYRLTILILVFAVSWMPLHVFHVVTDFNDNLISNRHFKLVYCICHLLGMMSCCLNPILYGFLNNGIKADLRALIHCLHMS
Briefly: Rat NPY5 Receptor Binding Assay. As to conditions: [125I]PYY; read-out: rNPY5 IC50.

The next assay has as its target T4, Human NPY2 receptor (Homo sapiens, UniProt P49146).
T4 sequence (P49146 1-381): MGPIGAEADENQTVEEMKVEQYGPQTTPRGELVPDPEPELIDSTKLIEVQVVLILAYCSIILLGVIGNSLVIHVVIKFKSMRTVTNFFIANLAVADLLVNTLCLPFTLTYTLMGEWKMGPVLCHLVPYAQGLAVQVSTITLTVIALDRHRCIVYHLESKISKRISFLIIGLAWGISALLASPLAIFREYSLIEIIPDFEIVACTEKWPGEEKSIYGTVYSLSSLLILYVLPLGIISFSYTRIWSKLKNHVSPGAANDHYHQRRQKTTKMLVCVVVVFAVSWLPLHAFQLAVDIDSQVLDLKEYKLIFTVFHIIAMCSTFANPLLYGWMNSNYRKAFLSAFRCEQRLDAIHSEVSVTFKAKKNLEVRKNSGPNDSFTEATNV
Briefly: Human NPY2 Receptor Binding Assay. Particulars: [125I]PYY; read-out: hPPY2 IC50.

Chain of Human NPY4/PP1 receptor (P50391 whole entry): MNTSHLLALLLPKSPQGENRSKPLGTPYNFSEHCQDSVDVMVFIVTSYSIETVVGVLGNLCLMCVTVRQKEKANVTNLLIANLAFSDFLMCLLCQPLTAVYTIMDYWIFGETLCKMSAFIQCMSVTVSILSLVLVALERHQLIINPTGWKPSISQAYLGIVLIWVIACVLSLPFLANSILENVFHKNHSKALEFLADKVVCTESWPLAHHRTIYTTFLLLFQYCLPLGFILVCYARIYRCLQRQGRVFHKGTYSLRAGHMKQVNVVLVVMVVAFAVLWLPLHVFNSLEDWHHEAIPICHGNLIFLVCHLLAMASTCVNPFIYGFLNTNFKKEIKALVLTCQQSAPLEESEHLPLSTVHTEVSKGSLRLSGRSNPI
Experimental for Human NPY2 receptor: Binding assays were performed on GF/C Millipore 96-well plates pretreated with 0.02% polyethylenimine. The binding buffer for rat Y2 binding is Krebs-Ringer bicarbonate (pH 7.4) containing 0.01% BSA and 0.005% bacitracin. Samples consist of membrane protein, 25 pM [125I]PYY and drug dilution. Nonspecific binding is defined by 1 μpM NPY.
After a 2 hour incubation at room temperature with constant mixing, the samples are aspirated on a vacuum manifold, and rinsed with ice-cold binding buffer. The amount of radioactivity in each well is quantitated with either gamma counting or liquid scintillation.

In the case of `CCC(C)c1ccc(NC(=O)CSc2nccn2C)cc1` (centres unmarked) [Compound 148, N-(4-sec-Butyl-phenyl)-2-(1-methyl-1H-imidazo1-2-ylsulfanyl)-acetamide, reference compound], the IC50 at Human NPY5 Receptor was 4 µM; at Human NPY1 Receptor it was over 5 µM; at Human NPY4/PP1 receptor, over 5 µM; at Rat NPY5 Receptor, 2.4 µM; at Human NPY2 receptor, over 5 µM.
As to `O=C(CSc1ncc[nH]1)Nc1ccc(C(=O)c2ccccc2)cc1` [Compound 4, N-(4-Benzoyl-phenyl)-2-(1H-imidazol-2-ylsultanyl)-acetamide], the IC50 on Human NPY1 Receptor was over 5 µM; at Human NPY4/PP1 receptor it was over 5 µM; on Rat NPY5 Receptor, 0.36 µM; on Human NPY2 receptor, over 5 µM.
As for `CC(C)c1ccc(NC(=O)CSc2n[nH]c(=O)n2-c2cccc(F)c2)cc1` [Compound 141, reference compound], the IC50 on Human NPY5 Receptor was 3 µM; at Human NPY1 Receptor, over 5 µM; on Human NPY4/PP1 receptor, over 5 µM; at Rat NPY5 Receptor, 3 µM; on Human NPY2 receptor it was over 5 µM.
Take `CC(C)c1ccc(NC(=O)CSc2nnc(Cn3cc(C(F)(F)F)ccc3=O)n2C)cc1` [Compound 176, N-(4-isopropyl-phenyl)-2-[4-methyl-5-(2-oxo-5-trifluoromethyl-2H-yridin-1-ylmethyl)-4H-[1,2,4]triazol-3-ylsulfanyl]-acetamide, reference compound]: the IC50 on Human NPY5 Receptor is 3 µM; on Human NPY1 Receptor it was over 5 µM; at Human NPY4/PP1 receptor, over 5 µM; at Human NPY2 receptor it was over 5 µM.
With `Cn1c(Cn2cc(C(F)(F)F)ccc2=O)nnc1SCC(=O)Nc1ccc(Cl)cc1` [Compound 175, N-(4-Chloro-phenyl)-2-[4-methyl-5-(2-oxo-5-trifluoromethyl-2H-pyridin-1-ylmethyl)-4H-[1,2,4]triazol-3-ylsulfanyl]-acetamide, reference compound], the IC50 on Human NPY5 Receptor was 7 µM; at Human NPY1 Receptor, over 5 µM; at Human NPY4/PP1 receptor, over 5 µM; on Human NPY2 receptor, over 5 µM.
`COC(Cn1c(SCC(=O)Nc2ccc(Cl)cc2)nnc1-c1ccc(Cl)cc1)OC` [Compound 161, N-(4-Chloro-phenyl)-2-[5-(4-chloro-phenyl)-4-(2,2-dimethoxy-ethyl)-4H-[1,2,4]triazol-3-ylsulfanyl]-ecetamide, reference compound]: the IC50 at Human NPY5 Receptor is over 10 µM; on Human NPY1 Receptor it was over 5 µM; on Human NPY4/PP1 receptor it was over 5 µM; on Rat NPY5 Receptor, over 10 µM.
For `Cn1c(Cc2ccsc2)nnc1SCC(=O)Nc1ccc(Cl)cc1` [Compound 168, N-(4-Chloro-phenyl)-2-(4-methyl-5-thiophen-3-ylmethyl-4H-[1,2,4]triazol-3-ylsulfanyl)-acetamide, reference compound], the IC50 is over 10 µM on Human NPY5 Receptor, over 5 µM on Human NPY1 Receptor, over 5 µM at Human NPY4/PP1 receptor and over 10 µM at Rat NPY5 Receptor.
As to `CSc1sc(-c2nnc(SCC(=O)Nc3ccc(Cl)cc3)n2C)c2c1C=CCC2` [Compound 159, N-(4-Chloro-phenyl)-2-[4-methyl-5-(3-methylsulfanyl-6,7-dihydro-benzo[c]thiophen-1-yl)-4H-[1,2,4]triazol-3-ylsulfanyl]-acetamide, reference compound], the IC50 at Human NPY5 Receptor is over 10 µM; on Human NPY1 Receptor it was over 5 µM; at Human NPY4/PP1 receptor it was over 5 µM; at Rat NPY5 Receptor it was over 10 µM.
As for `Cn1cnnc1SCC(=O)Nc1ccc(F)cc1` [Compound 170, N-(4-Fluoro-phenyl)-2-(4-methyl-4H-[1,2,4]triazol-3-ylsulfanyl)-acetamide, reference compound], the IC50 on Human NPY5 Receptor is over 10 µM; at Human NPY1 Receptor, over 5 µM; on Human NPY4/PP1 receptor, over 5 µM; at Rat NPY5 Receptor it was over 10 µM.
On to `CC(C)c1ccc(NC(=O)CSc2nnc(Cc3ccsc3)n2C)cc1` [Compound 158, N-(4-isopropyl-phenyl)-2-(4-methyl-5-thiophen-3-ylmethyl-4H-[1,2,4]triazol-3-ylsulfanyl)-acetamide, reference compound], for which the IC50 is over 10 µM on Human NPY5 Receptor, over 5 µM on Human NPY1 Receptor, over 5 µM at Human NPY4/PP1 receptor and over 10 µM at Rat NPY5 Receptor.
With `Cn1cnnc1SCC(=O)Nc1ccc(C(C)(C)C)cc1` [Compound 164, N-(4-tert-Butyl-phenyl)-2-(4-methyl-4H-[1,2,4]triazol-3-ylsulfanyl)-acetamide, reference compound], the IC50 on Human NPY5 Receptor is 1.6 µM; at Human NPY1 Receptor it was over 5 µM; on Human NPY4/PP1 receptor, over 5 µM; on Rat NPY5 Receptor it was 1.7 µM.
`Cc1ccc(NC(=O)CSc2nncn2C)cc1` [Compound 174, 2-(4-Methyl-4H-[1,2,4]triazol-3-ylsulfanyl)-N-p-tolyl-acetamide, reference compound]: the IC50 on Human NPY5 Receptor is over 10 µM; at Human NPY1 Receptor, over 5 µM; on Human NPY4/PP1 receptor, over 5 µM; at Rat NPY5 Receptor it was over 10 µM.
As for `Cn1cnnc1SCC(=O)Nc1ccc(C2CCCCC2)cc1` [Compound 173, N-(4-Cyclohexyl-phenyl)-2-(4-methyl-4H-[1,2,4]triazol-3-ylsulfanyl)-acetamide, reference compound], the IC50 is 0.08 µM on Human NPY5 Receptor, over 5 µM on Human NPY1 Receptor, over 5 µM on Human NPY4/PP1 receptor and 0.073 µM at Rat NPY5 Receptor.
As to `CCn1c(SCC(=O)Nc2cc(C)ccc2OC)nnc1C(F)(F)F` [Compound 157, N-(2-Methoxy-5-methyl-phenyl)-2-(4-ethyl-5-trifluoromethyl-4H-[1,2,4]triazol-3-ylsulfanyl)-acetamide, reference compound], the IC50 on Human NPY5 Receptor is over 10 µM; at Human NPY1 Receptor it was over 5 µM; on Human NPY4/PP1 receptor, over 5 µM; on Rat NPY5 Receptor, over 10 µM.
With `CC(C)c1ccc(NC(=O)CSc2nnc(CSc3cccs3)n2C)cc1` [Compound 153, reference compound], the IC50 was over 10 µM on Human NPY5 Receptor, over 5 µM on Human NPY1 Receptor, over 5 µM on Human NPY4/PP1 receptor and over 10 µM on Rat NPY5 Receptor.
As for `Cn1c(CC2Sc3ccccc3NC2=O)nnc1SCC(=O)Nc1ccc(Cl)cc1` (centres unmarked) [Compound 167, reference compound], the IC50 is over 10 µM on Human NPY5 Receptor, over 5 µM on Human NPY1 Receptor, over 5 µM at Human NPY4/PP1 receptor and over 10 µM on Rat NPY5 Receptor.
Consider `Cc1cc(-c2nnc(SCC(=O)Nc3ccccc3)n2C)no1` [Compound 150, 2-[4-Methyl-5-(5-methyl-isoxazol-3-yl)-4H-[1,2,4]triazol-3-ylsulfanyl]-N-phenyl-acetamide, reference compound], for which the IC50 at Human NPY5 Receptor is over 10 µM; on Human NPY1 Receptor it was over 5 µM; at Human NPY4/PP1 receptor, over 5 µM; at Rat NPY5 Receptor, over 10 µM.
Take `CC(C)c1ccc(NC(=O)CSc2nc3cc(C(F)(F)F)ccc3n2C(C)C)cc1` [Compound 165, N-(4-Isopropyl-phenyl)-2-(1-isopropyl-5-trifluoromethyl-1H-benzolmidazol-2-ylsulfanyl)-acetamide, reference compound]: the IC50 on Human NPY5 Receptor is over 10 µM; at Human NPY1 Receptor, over 5 µM; on Human NPY4/PP1 receptor, over 5 µM; on Rat NPY5 Receptor it was over 10 µM.

The IC50 is the concentration that gives 50% inhibition.
